In experiment [1] the target is T1, β2AR (Homo sapiens, UniProt P07550).
T1 construct: host or cells: HEK293 cells stably expressing (EA)-β-arrestin-2
Kind of experiment: β-arrestin-2 recruitment assay (PathHunter enzyme fragment complementation), norepinephrine-stimulated. It counts as cell-based. The conditions noted are these: for negative allosteric effect on norepinephrine-stimulated β-arrestin 2 recruitment (in words): analogs tested at 10 μM and 30 μM compared to norepinephrine alone (FIG. 9); for inhibition at 30 µM: arrestin recruitment stimulated by norepinephrine after preincubation with 30 μM of the test compound; for inhibition at 30 µM / inhibition at 10 µM: read-out: attenuation of Emax (maximum efficacy of norepinephrine); for inhibition at 10 µM: arrestin recruitment stimulated by norepinephrine, attenuating effect at 10 μM of the test compound. As to the method: (§1) β-Arrestin-2 Recruitment Assay. Determination of β-arrestin-2 recruitment was performed applying the PathHunter assay (DiscoverX, Birmingham, U.K.) which is based on fragment complementation of β-galactosidase in HEK293 cells stably expressing (EA)-β-arrestin-2 and being transiently transfected with a receptor tagged to the PK fragment. In general, cells were transfected employing Mirus TransIT-293 (peqlab, Erlangen, Germany) and incubated in DMEM/F12 medium (Life Technologies, Darmstadt, Germany) at 37° C. and 5% of CO2. After 24 hrs cells were detached with Versene (Life Technologies) and transferred into 384-well plates (white plate, transparent bottom, Greiner Bio-One, Frickenhausen, Germany) at a density of 5000 cells/well using the medium CP4 Reagent (DiscoverX). After further 24 hrs of incubation test compounds dissolved in PBS were added to the cells at a final volume of 25 μL and incubated at 37° C. for a distinct time which was optimized for each receptor (details are summarized in the supporting information). Determination of β-arrestin-2 recruitment was started by adding detection mix, incubation at room temperature for 60 min and measuring chemoluminescence with a Clariostar plate reader (BMG, Ortenberg, Germany). For measuring allosteric effects the modulator was preincubated with the cells at a distinct concentration for 30 min followed by the addition of reference agonist. Data analysis of functional experiments were performed by normalizing the raw data relative to basal activity (0%) and the maximum effect of the reference agonist (100%). Normalized curves from three to seven individual experiments each done as duplicate were analyzed by non-linear regression applying the algorithms in Prism 6.0 (GraphPad, San Diego, Calif.) to get dose-response curves representing average EC50 and Emax value.
β-Arrestin-2 Recruitment Assay. β-Arrestin-2 recruitment was performed applying the fragment complementation assay PathHunter (DiscoverX) with HEK293 cells stably expressing (EA)-β-arrestin-2. The appropriate receptor was transiently transfected when using a specific pCMV vectors with the PK-tag located at different distances downstream of the C-terminus of the inserted receptor (PK1, PK2 and PK-ARMS2, purchased from DiscoverX, Birmingham, UK). ADRB2-PK encoding the human β2AR was purchased from DiscoverX, while all other vectors with related GPCRs were engineered by inserting the DNA of the appropriate receptor in frame into the different PK constructs further excluding the stop codon. Mutants of the β2AR were done applying polymerase chain reaction with appropriate primers.
For orientation: Recruitment of arrestin is a read-out of receptor activation apart from second messengers.

Experiment [2] addresses T1, β2AR. The experiment in a line: cAMP accumulation assay (FRET-Epac sensor). The format is cell-based. Background: Changes in cAMP serve as a functional read-out for many G protein-coupled receptors.
Protocol: cAMP accumulation assays. Intact cell cAMP accumulation was measured using the FRET-epac sensor in stable HEK293-Epac cells endogenously expressing β2AR or in CHO cells co-transfected with Epac and β2AR or the mutants. Cells were harvested with lifting buffer (20 mM HEPES, pH 7.4, 150 mM NaCl and 0.68 mM EDTA), centrifuged and resuspended in HBSS-HEPES (Hank's Balanced Salt Solution plus 20 mM HEPES, pH 7.4) containing 0-150 μM modulator or vehicle (for a final assay concentration of 0-100 μM). This cell suspension (100 μL) was pipetted into the wells of a 96 well plate (black with clear bottom). After 20 min in the dark at 37° C., 50 μL of HBSS-HEPES buffer at 37° C. containing 1B MX (1 mM final), ascorbic acid (1 mM final), and norepinephrine or epinephrine (0-100 μM final) was added. The CFP/YFP ratio of the Epac-cAMP FRET sensor was immediately measured for 15 min using wavelengths of 435 nm for excitation with 485 nm and 530 nm for emission using a SpectraMax M5 (Molecular Devices).
The subject of experiment [3] is other Family A GPCRs (α2AAR, 5-HT1AR, M2AChR, D2longDR, PAR2, NTS1R, μOR, κOR, δOR). The experiment in a line: β-arrestin-2 recruitment assay, subtype selectivity. The format is cell-based. As to the method: as §1
(§2) β-Arrestin-2 Recruitment Assay. β-Arrestin-2 recruitment was performed applying the fragment complementation assay PathHunter (DiscoverX) with HEK293 cells stably expressing (EA)-β-arrestin-2. […]

A further experiment addresses T2, β1AR (Mus musculus, UniProt P34971).
T2 construct: expressed in transfected cells; host or cells: HEK293 cells stably expressing (EA)-β-arrestin-2
The experiment is described as above. It counts as cell-based. On the procedure:
as §1, §2

The next experiment deals with T3, α1AAR (Homo sapiens, UniProt P35348).
T3 construct: expressed in transfected cells; host or cells: HEK293 cells stably expressing (EA)-β-arrestin-2
T3 sequence (P35348 1-466): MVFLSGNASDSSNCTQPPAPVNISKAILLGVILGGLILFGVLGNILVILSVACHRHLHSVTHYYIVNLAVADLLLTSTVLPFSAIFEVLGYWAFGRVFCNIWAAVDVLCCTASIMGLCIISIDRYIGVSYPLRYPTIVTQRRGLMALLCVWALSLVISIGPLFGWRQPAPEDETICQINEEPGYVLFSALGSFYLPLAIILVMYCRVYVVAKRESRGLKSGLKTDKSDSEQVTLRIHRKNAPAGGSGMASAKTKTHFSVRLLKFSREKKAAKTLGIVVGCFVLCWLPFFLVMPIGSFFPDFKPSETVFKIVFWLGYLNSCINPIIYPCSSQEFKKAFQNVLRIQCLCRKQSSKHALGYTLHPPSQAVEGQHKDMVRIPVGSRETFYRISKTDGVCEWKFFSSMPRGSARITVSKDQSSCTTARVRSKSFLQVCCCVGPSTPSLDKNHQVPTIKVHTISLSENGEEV
The experiment is described as above. It counts as cell-based. On the procedure: as §1, §2

For experiment [4], the system named is β2AR E122^3.41 mutants (E122L, E122Q, E122R). Kind of experiment: Radioligand binding assay with [3H]DHAP, E122 mutants. Details: species or system human. Particulars: all of the mutants, relative to wild type. As to the method:
Membranes prepared from Sf9 cells infected with baculoviruses expressing β2AR (wt) or E122 mutants in the absence or presence of co-expressed Gs heterotrimer were assessed by radioligand binding with [^3H]DHAP. […] Ki's were determined using Graphpad (Prism, San Diego) using the Kd of [^3H]DHAP specific for β2AR (wt) and each mutant, according to the Cheng-Prusoff equation. Values for high affinity agonist site (Khigh) and low affinity site (Klow) from membranes prepared from β2AR (wt) or mutants co-infected with Gs heterotrimer were determined by non-linear regression fitting (2-site) using Kd values of [^3H]DHAP, as above (Graphpad, San Diego).
Radioligand binding assay. […] Samples were taken at varying time points, filtered and washed as described below to remove free [^3H]formoterol. For [^3H]DHAP saturation isotherms of β2AR and mutants, membranes were incubated with varying concentrations of [^3H]DHAP and filtered as described below. Samples were subject to rapid filtration through GF/B membranes and rinsed with ice cold binding buffer to remove free [^3H]probe. Filter plates were dried before adding Microscint 0 and counting bound [^3H]probe using a Packard TopCount. All data were analyzed using Graphpad (Prism, San Diego Calif.).

T1 sequence (P07550 whole entry): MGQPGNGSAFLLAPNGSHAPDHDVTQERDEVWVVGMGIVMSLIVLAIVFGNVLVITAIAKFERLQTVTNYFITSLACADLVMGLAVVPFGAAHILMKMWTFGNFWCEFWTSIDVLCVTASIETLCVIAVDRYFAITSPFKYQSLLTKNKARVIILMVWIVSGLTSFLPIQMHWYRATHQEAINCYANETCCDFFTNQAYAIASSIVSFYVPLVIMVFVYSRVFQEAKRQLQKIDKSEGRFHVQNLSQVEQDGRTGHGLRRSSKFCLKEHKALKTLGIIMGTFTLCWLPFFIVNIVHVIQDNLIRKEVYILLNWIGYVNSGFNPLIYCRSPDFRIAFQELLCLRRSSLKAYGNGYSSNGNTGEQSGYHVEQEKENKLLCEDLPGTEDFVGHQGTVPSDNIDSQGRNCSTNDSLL
T2 sequence (P34971 whole entry): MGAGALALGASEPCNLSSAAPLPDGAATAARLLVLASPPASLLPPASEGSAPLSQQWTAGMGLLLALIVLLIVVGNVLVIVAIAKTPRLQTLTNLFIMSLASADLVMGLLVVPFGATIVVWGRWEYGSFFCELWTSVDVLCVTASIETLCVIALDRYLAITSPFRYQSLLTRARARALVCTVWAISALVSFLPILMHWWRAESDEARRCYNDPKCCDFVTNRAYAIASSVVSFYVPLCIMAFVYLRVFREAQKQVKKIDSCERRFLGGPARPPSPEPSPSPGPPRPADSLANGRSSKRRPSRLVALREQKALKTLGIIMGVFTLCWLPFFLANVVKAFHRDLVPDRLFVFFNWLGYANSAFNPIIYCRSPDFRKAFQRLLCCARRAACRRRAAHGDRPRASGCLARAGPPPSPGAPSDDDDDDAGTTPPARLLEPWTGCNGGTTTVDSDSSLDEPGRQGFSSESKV

Regarding `Nc1nc(Nc2ccccc2)nc2ccc(F)cc12` [DD284, 6-Fluoro-N^2-phenylquinazoline-2,4-diamine], at β2AR [1], the “negative allosteric effect on norepinephrine-stimulated β-arrestin 2 recruitment (in words)” value (from here on “negative allosteric effect”) is reported as “less potent” and the inhibition at 30 µM is less than 30%.

As for `COC(=O)c1ccc(Nc2nc(N)c3ccccc3n2)c(O)c1` [JT11, Methyl 4-((4-aminoquinazolin-2-yl)amino)-3-hydroxybenzoate], the inhibition at 10 µM on β2AR [1] is less than 30%. For the compound `CCCNc1nc(N)c2ccccc2n1` [BRAC1-5], on β2AR [1], the “negative allosteric effect” value is listed as “reduces the negative allosteric effect”. For `Nc1nc(Nc2ccc(S(N)(=O)=O)cc2)nc2ccccc12` [AS197, 4-((4-Aminoquinazolin-2-yl)amino)benzenesulfonamide], at β2AR [1], the inhibition at 30 µM was less than 30%. As to `Nc1nc(Nc2ccc3ccccc3c2)nc2ccc(Br)cc12` [DD290, 6-bromo-N2-(naphthalen-2-yl)quinazoline-2,4-diamine], the inhibition at 10 µM at β2AR [1] was less than 30%. As for `Nc1nc(Nc2ccccc2)nc2c(Cl)cccc12` [AS328, 8-Chloro-N^2-phenylquinazoline-2,4-diamine], at β2AR [1], the inhibition at 30 µM is 31 to 70%. Take `Nc1nc(Nc2ccccc2)nc2c(Br)cccc12` [AS241, 8-Bromo-N^2-phenylquinazoline-2,4-diamine]: at β2AR [1], the “negative allosteric effect” value is “reduced allosteric modulation” and the inhibition at 30 µM lay within 31 to 70%. Consider `Nc1nc(Nc2ccccc2O)nc2cccc(Cl)c12` [JT12, 2-((4-Amino-5-chloroquinazolin-2-yl)amino)phenol], for which the inhibition at 30 µM at β2AR [1] was less than 30%.

Consider `Brc1ccc2nc(Nc3ccccc3)ncc2c1` [DD288, 6-Bromo-/V-phenylquinazolin-2-amine], for which, on β2AR [1], the “negative allosteric effect” value was “attenuated negative allosteric effect” and the inhibition at 30 µM was 31 to 70%. On to `Nc1nc(Nc2ccccc2)nc2ccc(-c3ccccc3)cc12` [ST240, N^2,6-Diphenylquinazoline-2,4-diamine], for which, on β2AR [1], the “negative allosteric effect” value is on record as “further disruption of the negative allosteric effect” and the inhibition at 30 µM lay within 31 to 70%.

For the compound `Nc1nc(Nc2ccccc2)nc2ccc(C(F)(F)F)cc12` [DD293, 6-Trifluoromethyl-N^2-phenylquinazoline-2,4-diamine], on β2AR [1], the “negative allosteric effect” value is “activity comparable to Br” and the inhibition at 30 µM was 71 to 100%. In the case of `Nc1nc(Nc2cccc(CCC(=O)O)c2)nc2ccc(Br)cc12` [DD291, 3-(3-((4-amino-6-bromoquinazolin-2-yl)amino)phenyl)propanoic acid], the inhibition at 30 µM on β2AR [1] is less than 30%.

`COC(=O)c1ccc(Nc2nc(N)c3c(Cl)cccc3n2)cc1` [AS228, Methyl 4-((4-amino-5-chloroquinazolin-2-yl)amino)benzoate]: the inhibition at 30 µM on β2AR [1] was less than 30%. Turning to `Nc1nc(Nc2ccccc2)nc2ccccc12` [BRAC1], on β2AR [1], the “negative allosteric effect” value is on record as “weak, negative allosteric regulation”. On β2AR [2], the “negative allosteric regulation of cAMP accumulation (in words)” value was “weak, negative allosteric regulation”. For `Nc1nc(Nc2cccc(CCC(=O)OCC(O)CO)c2)nc2ccc(Br)cc12` (stereo not drawn) [DD294, 2,3-dihydroxypropyl-(3-((4-amino-6-bromoquinazolin-2-yl)amino)phenyl)propanoate], the inhibition at 30 µM on β2AR [1] is less than 30%. For `Nc1nc(Nc2ccccc2)nc2cccc(Br)c12` [AS094, 5-Bromo-N^2-phenylquinazoline-2,4-diamine], at β2AR [1], the “negative allosteric effect” value was “reduced allosteric modulation” and the inhibition at 30 µM lay in the range of 31 to 70%. For `Nc1nc(Nc2ccccc2)nc2ccc(Br)cc12` [AS408, 6-Bromo-N^2-phenylquinazoline-2,4-diamine], in experiment [3], the “allosteric activity at the other GPCRs tested” value was “no allosteric activity”. Besides, the “potency at β1AR relative to β2AR” value at β1AR is “small reduction in the potency”. Moreover, the “allosteric activity at α1AR” value at α1AAR is given as “weak NAM”. The “effect of AS408 on agonist binding affinity at E122 mutants” value in experiment [4] is listed as “reduced relative to the wild-type receptor”.

On to `Nc1nc(Nc2cccc(O)c2)nc2ccccc12` [BRAC1-23], for which, on β2AR [1], the “negative allosteric effect” value is “Reduction of the allosteric effect”. Consider `COC(=O)c1ccc(Nc2nc(N)c3c(F)cccc3n2)c(O)c1` [AS202, Methyl 4-((4-amino-5-fluoroquinazolin-2-yl)amino)-3-hydroxybenzoate], for which the inhibition at 30 µM on β2AR [1] is less than 30%. On to `Nc1nc(Nc2ccccc2CO)nc2ccc(Br)cc12` [DD283, 6-Bromo-N^2-(2-hydroxymethyl)phenylquinazoline-2,4-diamine], for which the inhibition at 30 µM at β2AR [1] is less than 30%.

As to `Nc1nc(Nc2ccccc2)nc2ccc(Cl)cc12` [DD282, 6-Chloro-N^2-phenylquinazoline-2,4-diamine], at β2AR [1], the “negative allosteric effect” value is on record as “activity comparable to Br” and the inhibition at 30 µM lay in the range of 71 to 100%. Regarding `CNC(=O)c1ccc(Nc2nc(N)c3ccccc3n2)cc1` [AS198, 4-((4-Aminoquinazolin-2-yl)amino)-N-methylbenzamide], the inhibition at 30 µM at β2AR [1] is less than 30%.

With `Nc1nc(Nc2ccccc2)nc2ccc(I)cc12` [ST239, 6-Iodo-N^2-phenylquinazoline-2,4-diamine], at β2AR [1], the “negative allosteric effect” value is reported as “activity comparable to Br” and the inhibition at 30 µM lay in the range of 71 to 100%. In the case of `Nc1nc(Nc2ccccc2)nc2cc(Br)ccc12` [AS436, 7-Bromo-N^2-phenylquinazoline-2,4-diamine], on β2AR [1], the “negative allosteric effect” value is “reduced allosteric modulation” and the inhibition at 30 µM lay in the range of 31 to 70%.

Consider `Nc1nc(Nc2ccccc2)nc2cccc(Cl)c12` [AS098, 5-Chloro-N^2-phenylquinazoline-2,4-diamine], for which the inhibition at 30 µM at β2AR [1] is 31 to 70%. In the case of `CC(C)c1ccc2nc(Nc3ccccc3)nc(N)c2c1` [ST238, 6-Isopropyl-N^2-phenylquinazoline-2,4-diamine], the inhibition at 30 µM at β2AR [1] lay within 31 to 70%.

The values are drawn from patent US20210353626A1, “BETA-ADRENERGIC RECEPTOR ALLOSTERIC MODULATORS” (THE REGENTS OF THE UNIVERSITY OF CALIFORNIA, priority 2018, published 2021).
